Test results from US20230078764A1 (Yumanity Therapeutics, Inc., priority 2019, published 2023).

Experiments:
human SCD1 = target: T1, human SCD1 (Homo sapiens, UniProt O00767); experiment: Growth inhibition of yeast strain expressing human SCD1 as sole desaturase (OLE1 deleted), OD600 readout; format: cell-based; conditions: yeast strain expressing human SCD1 as sole desaturase; growth (OD600) after 40 h at 30° C.; read-out: SCD1 IC50
T1 construct: expressed in transfected cells; host or cells: yeast strain with OLE1 deleted, plasmid-borne human SCD1 (selected in SD-Ura)
T1 sequence (O00767 1-359): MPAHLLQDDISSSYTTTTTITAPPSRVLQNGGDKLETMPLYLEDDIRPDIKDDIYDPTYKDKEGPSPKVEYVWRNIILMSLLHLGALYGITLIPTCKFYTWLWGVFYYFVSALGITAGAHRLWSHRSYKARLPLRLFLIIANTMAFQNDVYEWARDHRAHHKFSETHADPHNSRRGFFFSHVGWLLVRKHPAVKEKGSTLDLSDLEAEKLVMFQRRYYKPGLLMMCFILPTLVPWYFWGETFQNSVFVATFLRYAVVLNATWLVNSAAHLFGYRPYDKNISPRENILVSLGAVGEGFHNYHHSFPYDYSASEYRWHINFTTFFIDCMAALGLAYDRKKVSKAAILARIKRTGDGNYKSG

human SCD5 = target: T2, human SCD5 (Homo sapiens, UniProt Q86SK9); experiment: Growth inhibition of yeast strain expressing human SCD5 as sole desaturase (OLE1 deleted), OD600 readout; format: cell-based; conditions: yeast strain expressing human SCD5 as sole desaturase; growth (OD600) after 40 h at 30° C.; read-out: SCD5 IC50
T2 construct: expressed in transfected cells; host or cells: yeast strain with OLE1 deleted, plasmid-borne human SCD5 (selected in SD-Ura)
T2 sequence (Q86SK9 1-330): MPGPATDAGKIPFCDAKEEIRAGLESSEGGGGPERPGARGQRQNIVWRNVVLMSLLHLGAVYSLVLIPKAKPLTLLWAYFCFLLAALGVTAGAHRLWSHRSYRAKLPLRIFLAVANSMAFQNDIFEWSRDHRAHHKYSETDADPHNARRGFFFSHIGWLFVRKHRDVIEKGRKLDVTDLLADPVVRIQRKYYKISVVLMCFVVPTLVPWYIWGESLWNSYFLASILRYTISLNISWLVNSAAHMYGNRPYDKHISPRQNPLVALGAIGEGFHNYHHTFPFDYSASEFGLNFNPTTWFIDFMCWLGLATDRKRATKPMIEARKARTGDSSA

SMILES | IC50 (human SCD1) | IC50 (human SCD5)
CCCn1nc(C(=O)Nc2ccc(Cc3cccc(F)c3)cn2)ccc1=O [Compound 71, N-(5-(3-fluorobenzyl)pyridin-2-yl)-6-oxo-1-propyl-1,6-dihydropyridazine-3-carboxamide] | > 45 µM | 3.91 µM
Cn1nc(C(=O)Nc2ncc(Cc3cccc(C#N)c3)s2)ccc1=O [Compound 389] | > 45 µM | > 45 µM
CC(C)n1nc(C(=O)Nc2ccc(Cc3cccc(Cl)c3)cn2)ccc1=O [Compound 73, N-(5-(3-chlorobenzyl)pyridin-2-yl)-1-isopropyl-6-oxo-1,6-dihydropyridazine-3-carboxamide] | 8.08 µM | 0.17 µM
O=C(Nc1ccc(Cc2cccc(F)c2)cn1)c1ccc2nccn2c1 [Compound 154, N-(5-(3-fluorobenzyl)pyridin-2-yl)imidazo[1,2-a]pyridine-6-carboxamide] | > 45 µM | 14.6 µM
Cn1nc(C(=O)Nc2ccc(Cc3ccc(F)c(F)c3)cn2)cc1O [Compound 324] | > 45 µM | 1.13 µM
CN1N=C(C(=O)Nc2ccc(Cc3cccc(C#N)c3)cn2)CCC1=O [Compound 8, N-(5-(3-cyanobenzyl)pyridin-2-yl)-1-methyl-6-oxo-1,4,5,6-tetrahydropyridazine-3-carboxamide] | > 45 µM | –
Cc1nnc2ccc(C(=O)Nc3ccc(Cc4cccc(F)c4)cn3)cn12 [Compound 152, N-(5-(3-fluorobenzyl)pyridin-2-yl)-3-methyl-[1,2,4]triazolo[4,3-a]pyridine-6-carboxamide] | > 45 µM | –
Cn1cc(C(=O)Nc2ccc(COc3cccc(Cl)c3)cn2)ccc1=O [Compound 263] | > 45 µM | –
CN1N=C(c2nc3cc(Cc4cccc(Cl)c4)cnc3[nH]2)CCC1=O [Compound 255] | – | 4.74 µM
Cn1cc(C(=O)Nc2ccc(Oc3cccc(F)c3)cn2)ccc1=O [Compound 160, N-[5-(3-fluorophenoxy)pyridin-2-yl]-1-methyl-6-oxo-1,6-dihydropyridine-3-carboxamide] | > 45 µM | –
CN1N=C(C(=O)Nc2ccc(Cc3ccccc3)nn2)CCC1=O [Compound 253] | – | 4.75 µM
N#Cc1ccc(C(=O)Nc2ccc(Cc3cccc(F)c3)cn2)nc1 [Compound 142, 5-cyano-N-(5-(3-fluorobenzyl)pyridin-2-yl)picolinamide] | > 45 µM | –
CN1N=C(C(=O)Nc2ccc(Cc3cc(F)cc(C#N)c3)cn2)CCC1=O [Example 26, N-(5-(3-cyano-5-fluorobenzyl)pyridin-2-yl)-1-methyl-6-oxo-1,4,5,6-tetrahydropyridazine-3-carboxamide] | > 45 µM | –
COc1cccc(Cc2ccc(NC(=O)C3=NN(C)C(=O)CC3)nn2)c1 [Compound 182, N-(6-(3-methoxybenzyl)pyridazin-3-yl)-1-methyl-6-oxo-1,4,5,6-tetrahydropyridazine-3-carboxamide] | > 45 µM | –
CN1N=C(C(=O)Nc2ccc(Cc3cccc(F)c3)nn2)CCC1=O [Compound 193, N-(6-(3-fluorobenzyl)pyridazin-3-yl)-1-methyl-6-oxo-1,4,5,6-tetrahydropyridazine-3-carboxamide] | > 45 µM | –
CN1N=C(C(=O)Nc2ccc(Cc3ccc4c(c3)COC4)cn2)CCC1=O [Example 19, N-(5-((1,3-dihydroisobenzofuran-5-yl)methyl)pyridin-2-yl)-1-methyl-6-oxo-1,4,5,6-tetrahydropyridazine-3-carboxamide] | > 45 µM | –
CN1N=C(C(=O)Nc2ccc(Cc3ccccc3)cn2)CCC1=O [Compound 13, N-(5-benzylpyridin-2-yl)-1-methyl-6-oxo-1,4,5,6-tetrahydropyridazine-3-carboxamide] | > 45 µM | –
CN1N=C(C(=O)Nc2ccc(Cc3ccc(F)cc3)cn2)CCC1=O [Example 17, N-(5-(4-fluorobenzyl)pyridin-2-yl)-1-methyl-6-oxo-1,4,5,6-tetrahydropyridazine-3-carboxamide] | > 45 µM | –
CN1N=C(C(=O)Nc2ccc(/C=C/c3cccc(Cl)c3)nn2)CCC1=O [Compound 418] | – | > 45 µM
Cn1nc(C(=O)Nc2ccc(Oc3cccc(F)c3)cn2)ccc1=O [Compound 162, N-[5-(3-fluorophenoxy)pyridin-2-yl]-1-methyl-6-oxo-1,6-dihydropyridazine-3-carboxamide] | > 45 µM | –
CCn1cc(C(=O)Nc2ccc(Oc3cccc(F)c3)cn2)ccc1=O [Compound 164, 1-ethyl-N-[5-(3-fluorophenoxy)pyridin-2-yl]-6-oxo-1,6-dihydropyridine-3-carboxamide] | > 45 µM | –
CN1N=C(C(=O)Nc2ccc(Cc3cc(F)cc(F)c3)cn2)CCC1=O [Example 22, N-(5-(3,5-difluorobenzyl)pyridin-2-yl)-1-methyl-6-oxo-1,4,5,6-tetrahydropyridazine-3-carboxamide] | > 45 µM | –

The next lines start with the values.

IC50 (human SCD1) | IC50 (human SCD5) | SMILES
4 µM | 0.24 µM | Cn1nc(C(=O)Nc2ccc(NCc3cccc(Cl)c3)cn2)ccc1=O [Compound 286]
0.71 µM | 0.02 µM | COc1nccc(C(=O)Nc2ccc(Cc3cccc(F)c3)cn2)n1 [Compound 364]
0.18 µM | 0.14 µM | CC(=O)c1ccc(C(=O)Nc2ccc(Cc3cccc(Cl)c3)cn2)nn1 [Compound 517]
> 45 µM | 0.034 µM | O=C(Nc1ccc(Cc2cc(F)cc(F)c2)cn1)c1cnc(Cl)c(Cl)c1 [Compound 601]
0.02 µM | 0.02 µM | O=C(Nc1ccc(Cc2cccc(Cl)c2)cn1)c1ccc(CCO)nc1 [Compound 366]
0.83 µM | 0.23 µM | Cc1ccc(NC(=O)c2ccc(Cc3cccc(F)c3)cn2)nn1 [Compound 126, 5-(3-Fluorobenzyl)-N-(6-methylpyridazin-3-yl)picolinamide]
> 45 µM | > 45 µM | O=C(Nc1ccc(Cc2cccc(Cl)c2)cn1)c1ccn2cnnc2c1 [Compound 429]
1.1 µM | 0.57 µM | N#Cc1cc(C(=O)Nc2ccc(Cc3ccc(F)c(F)c3)cn2)ccn1 [Compound 563]
> 45 µM | > 45 µM | Cn1cc(C(=O)Nc2nnc(Cc3cccc(Cl)c3)s2)ccc1=O [Compound 462]
6.28 µM | 0.05 µM | CN1N=C(C(=O)Nc2ccc(Cc3cc(Cl)cc(Cl)c3)cn2)CCC1=O [Example 31]
1.88 µM | 1.77 µM | CN1N=C(C(=O)Nc2ncc(Cc3cc(F)ccc3F)s2)CCC1=O [Compound 235, N-(5-(2,5-difluorobenzyl)thiazol-2-yl)-1-methyl-6-oxo-1,4,5,6-tetrahydropyridazine-3-carboxamide]
2.07 µM | 1.96 µM | O=C(Nc1ncc(Cc2cccc(Cl)c2)s1)c1ccc(=O)n(C2COC2)n1 [Compound 225, N-(5-(3-chlorobenzyl)thiazol-2-yl)-1-(oxetan-3-yl)-6-oxo-1,6-dihydropyridazine-3-carboxamide]
3.5 µM | 0.17 µM | Cn1nc(C(=O)Nc2ccc(Cc3cc(F)ccc3F)cn2)ccc1=O [Compound 539]
0.29 µM | 0.01 µM | Cn1cccc(C(=O)Nc2ccc(Cc3cccc(F)c3)cn2)c1=O [Compound 140, N-(5-(3-fluorobenzyl)pyridin-2-yl)-1-methyl-2-oxo-1,2-dihydropyridine-3-carboxamide]
0.25 µM | 0.01 µM | Cc1cc(C(=O)Nc2ccc(Cc3cccc(F)c3)cn2)nc(C)n1 [Compound 239]
0.01 µM | 0.01 µM | O=C(Nc1ccc(Cc2cccc(Cl)c2)cn1)c1ccc(CO)nn1 [Compound 122, N-(5-(3-chlorobenzyl)pyridin-2-yl)-6-(hydroxymethyl)pyridazine-3-carboxamide]
8.93 µM | 3.17 µM | CN1N=C(C(=O)Nc2ncc(Cc3cncc(Cl)c3)s2)CCC1=O [Compound 231, N-(5-((5-chloropyridin-3-yl)methyl)thiazol-2-yl)-1-methyl-6-oxo-1,4,5,6-tetrahydropyridazine-3-carboxamide]
6.78 µM | 0.28 µM | CC(=O)c1ccc(C(=O)Nc2ccc(Cc3cccc(Cl)c3)cn2)cn1 [Compound 354]
25 µM | > 45 µM | CCN1N=C(C(=O)Nc2ncc(Cc3cccc(F)c3)s2)CCC1=O [Compound 414]
7.8 µM | 0.11 µM | COc1nccc(C(=O)Nc2ccc(Cc3ccc(F)c(F)c3)cn2)n1 [Compound 486]
1.4 µM | 0.062 µM | Cn1nc(C(=O)Nc2ccc(Cc3ccc(F)c(C#N)c3)cn2)ccc1=O [Compound 564]
14.1 µM | – | N#Cc1ccc(C(=O)Nc2ccc(Cc3cccc(F)c3)cn2)nc1 [Compound 135, 5-cyano-N-(5-(3-fluorobenzyl)pyridin-2-yl)picolinamide]
1.28 µM | – | Cn1nc(C(=O)Nc2cnn(Cc3cccc(Cl)c3)c2)ccc1=O [Compound 215, N-(1-(3-chlorobenzyl)-1H-pyrazol-4-yl)-1-methyl-6-oxo-1,6-dihydropyridazine-3-carboxamide]
